Columns and labels:
C57 mice = experiment: IOP in mice after once daily topical dosing (rebound tonometry); format: in vivo, mouse
Procedure: Mice were handled in accordance with acceptable animal care and use guidelines. C57BL/6 (C57) mice were bred/housed in clear cages and kept in housing rooms at 21° C. with a 12 h: 12 h light-dark cycle. Mice were examined at ages between 4 to 6 months old.
Each animal was randomly assigned to receive one masked treatment (eye drops, 4% Compound 1 or vehicle) in one eye and the other masked treatment in the contralateral eye once daily for three consecutive days. IOPs of both eyes were measured prior to eye drop administration using rebound tonometry between 11 am and 1 pm daily. After collecting IOP measurements on the third day, a final drop of Compound 1 or placebo was administered and TOP was measured again 2 and 4 hours later. For TOP measurements, mice were anesthetized with ketamine (60 mg/kg) and xylazine (6 mg/kg). TOP was immediately measured as the mice stopped moving, while drifting into light sleep, but before becoming anesthetized. Each TOP measurement that was recorded was a result of an average of six independent measurements per time point, giving a total of […] measurements from the same eye.

[1] = test system: ocular normotensive patients; experiment: Phase 1B multiple-ascending dose study of Compound 1 ophthalmic solution, IOP; format: in vivo, human; conditions: for mean diurnal IOP reduction in the study eye, relative to the 15 mg/mL dose: ANCOVA model
Procedure: A multi-center, double-masked, randomized, placebo-controlled, multiple-ascending dose (MAD) cohort study in up to 48 ocular normotensive patients was conducted. For subjects in cohort 1, IOP was between 12 mmHg and 23 mmHg (inclusive) in both eyes on Day −1. Cohorts 2-4 were limited to subjects with pre-treatment IOP≥16 mmHg and ≤23 mmHg in at least one eye and ≤23 mmHg in both eyes at all timepoints on two separate days of IOP assessment during screening. Subjects who received additional carbonic-anhydrase inhibiting drops or cholinergic agonist drops were washed-out for at least 7 days prior to Day −1.
On Day −1 (day before first day of dosing), day 1, and day 7, for all cohorts, a baseline diurnal time point assessment of IOP in both eyes occurred at pre-dose, and 2, 4, and 8 hours post-dose relative to the planned dosing time the following day.
For cohort 1, on the morning of day 1 and day 2, all subjects were administered a single dose (one drop of approximately 30 μL of the dosing solution (Compound 1 or placebo) corresponding to the respective dose level) into the right eye only. If no AEs related to the investigational medicinal product (IMP) that represented a cause for concern were observed, then treatment was administered to both eyes once daily on the mornings of days 3 to 7. For all subsequent cohorts, dose administration was to both eyes on all 7 days (except cohort 4, in which treatment was administered in both eyes twice daily (AM and PM) on days 1-6 with a final single dose in both eyes on the morning of day 7).
Diurnal time point assessments of IOP were performed on day 1 and day 7 in both eyes at pre-dose, and 2, 4, and 8 hours post-dose in all cohorts.
The Compound 1 ophthalmic solution used for the trial was formulated as a sterile unpreserved solution of Compound 1 (0.5% w/v to 4.0% w/v, or 5 mg/mL to 40 mg/mL; as the sodium salt) in a vehicle containing 15% w/v HPβCD and 1% w/v mannitol and adjusted to a pH of 6.5-7.5 with 1N Hydrochloric Acid and/or 1N Sodium Hydroxide. The solution was filtered through sterile 0.22-μm filters, and 0.5 mL was aseptically filled into single-use sterile dose administration bottles suitable for ophthalmic delivery. Placebo was the same as the vehicle for the Compound 1 ophthalmic solution. Compound 1 was stored at United States Pharmacopeia (USP) controlled room temperature.

COC(=O)N[C@@H](Cc1ccccc1)C(=O)N[C@@H](Cc1ccc(NS(=O)(=O)O)cc1)c1csc(-c2cccs2)n1 [Compound 1, 4-{(S)-2-[(S)-2-(Methoxycarbonylamino)-3-phenylpropanamido]-2-[2-(thiophen-2-yl)thiazol-4-yl]ethyl}phenylsulfamic acid]
decrease of IOP (C57 mice; 4% topical QD, Day 3, 2 and 4 hours after treatment): ~30% | change in IOP relative to Day 0, mean±standard error (C57 mice; 4% topical QD, just prior to dosing on Day 1): −0.74±0.43 mmHg | change in IOP relative to Day 0, mean±standard error (C57 mice; 4% topical QD, just prior to dosing on Day 2): −1.00±0.27 mmHg | change in IOP relative to Day 0, mean±standard error (C57 mice; 4% topical QD, prior to dosing on Day 3): −1.6±0.3 mmHg | change in IOP compared to both Day 0 pretreatment and placebo treatment, mean±SE (C57 mice; Day 3, 2 hours after treatment): −3.85±1.1 mmHg | change in IOP compared to only placebo-treated eyes, mean±SE (C57 mice; Day 3, 2 hours after treatment): −5.66±1.0 mmHg | change in IOP compared to both Day 0 pretreatment and placebo treatment, mean±SE (C57 mice; Day 3, 4 hours after treatment): −3.1±0.6 mmHg | change in IOP compared to only placebo-treated eyes, mean±SE (C57 mice; Day 3, 4 hours after treatment): −4.87±0.75 mmHg | mean diurnal IOP reduction in the study eye, relative to the 15 mg/mL dose ([1]; 40 mg/mL BID topical): −2.24 mmHg | mean diurnal IOP reduction in the study eye, relative to the 15 mg/mL dose ([1]; 40 mg/mL QD topical): −1.93 mmHg | IOP on day 7 at the 0-hour, pre-dose time point ([1]; 40 mg/ml dose, 12 hours after the previous dose): persistent TOP reduction | IOP change from baseline at 2, 4, and 8 hours post-dose ([1]; 40 mg/ml dose, days 1 and 7): significant TOP reductions from baseline

— patent US12064420B2, “Tie-2 activators targeting the Schlemm's canal” (EyePoint Pharmaceuticals, Inc., priority 2019, dated 2024)
